The values below come from patent US20240132464A1, “HETEROCYCLIC COMPOUNDS AS E3 LIGASE INHIBITORS” (Accutar Biotechnology Inc., priority 2022, published 2024).

Structures are written as SMILES.

The assay addresses T1, GID4 (Uniprot ID: Q81VV7, residues 124-289) (Homo sapiens, UniProt Q8IVV7).
T1 construct: GID4 (Uniprot ID: Q81VV7, residues 124-289)
T1 sequence (Q8IVV7 124-289): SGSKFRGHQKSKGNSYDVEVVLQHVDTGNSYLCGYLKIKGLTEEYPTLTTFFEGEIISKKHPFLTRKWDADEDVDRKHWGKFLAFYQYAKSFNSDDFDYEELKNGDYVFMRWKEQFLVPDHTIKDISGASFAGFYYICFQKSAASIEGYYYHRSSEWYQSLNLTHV
The assay is described as follows: GID4 competitive binding assay (AlphaScreen, GID4/degron peptide PGLW). Particulars: 24 nM GID4, 48 nM biotinylated degron peptide PGLW, 4° C., read-out: IC50 (Inhibition of GID4/Degron binding by test compounds). The method in brief:
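His-tagged human GID4 (residues 124-289, 24 nM) pre-incubated 2 h at 4 °C with 48 nM biotinylated PGLW peptide and compound in HEPES pH 7.5 buffer, 2% DMSO (final). AlphaScreen streptavidin donor/Ni-NTA acceptor beads added for 1 h; IC50 from nonlinear fit of % inhibition versus DMSO.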
For the molecule `Nc1nccc2ccc(Cc3cccc(C(=O)N4CCCC4)c3)cc12` [Compound 343, (3-((1-aminoisoquinolin-7-yl)methyl)phenyl)(pyrrolidin-1-yl)methanone], the IC50 is over 5 µM.
As to `CN1CCN(CCc2cccc(-c3ccc4ccnc(N)c4c3)c2)CC1` [Compound 344, 7-(3-(2-(4-methylpiperazin-1-yl)ethyl)phenyl)isoquinolin-1-amine], the IC50 is over 5 µM.
Turning to `CN1CCC(NC(=O)c2cccc(-c3ccc4ccnc(N)c4c3)c2)CC1` [Compound 345, 3-(1-aminoisoquinolin-7-yl)-N-(1-methylpiperidin-4-yl)benzamide], the IC50 fell in the range of 0.5 to 5 µM.
In the case of `COC1CCN(C(=O)c2cccc(-c3ccc4ccnc(N)c4c3)c2)CC1` [Compound 346, (3-(1-aminoisoquinolin-7-yl)phenyl)(4-methoxypiperidin-1-yl)methanone], the IC50 was 0.5 to 5 µM.
Regarding `CN1CC(CNC(=O)c2cccc(-c3ccc4ccnc(N)c4c3)c2)C1` [Compound 347, 3-(1-aminoisoquinolin-7-yl)-N-((1-methylazetidin-3-yl)methyl)benzamide], the IC50 was over 5 µM.
As for `CN(C)CCCNC(=O)c1cccc(-c2ccc3ccnc(N)c3c2)c1` [Compound 348, 3-(1-aminoisoquinolin-7-yl)-N-(3-(dimethylamino)propyl)benzamide], the IC50 was over 5 µM.
In the case of `Nc1nccc2ccc(-c3csc(C(=O)N4CCCC4)c3)cc12` [Compound 349, (4-(1-aminoisoquinolin-7-yl)thiophen-2-yl)(pyrrolidin-1-yl)methanone], the IC50 was over 5 µM.
As for `CN(C)C1CCN(C(=O)c2cccc(-c3ccc4c(=O)[nH]ccc4c3)c2)C1` (centres unmarked) [Compound 350, 6-(3-(3-(dimethylamino)pyrrolidine-1-carbonyl)phenyl)isoquinolin-1(2H)-one], the figure is over 5 µM; as for `CN1CCN(C(=O)c2cccc(-c3ccc4ccnc(N)c4c3)c2)CC1` [Compound 351, (3-(1-aminoisoquinolin-7-yl)phenyl)(4-methylpiperazin-1-yl)methanone], over 5 µM; as for `O=C(c1cccc(-c2ccc3c(=O)[nH]ccc3c2)c1)N1CCCC1` [Compound 352, 6-(3-(pyrrolidine-1-carbonyl)phenyl)isoquinolin-1(2H)-one], 0.5 to 5 µM.
As for `Nc1nccc2ccc(-c3cccc(C(=O)N4CCCC4)c3)cc12` [Compound 353, (3-(1-aminoisoquinolin-7-yl)phenyl)(pyrrolidin-1-yl)methanone], the figure is 0.5 to 5 µM.
As for `Nc1nccc2ccc(N3CCC(C(=O)N4CCCC4)C3)cc12` (centres unmarked) [Compound 354, (1-(1-aminoisoquinolin-7-yl)pyrrolidin-3-yl)(pyrrolidin-1-yl)methanone], the IC50 was over 5 µM.
In the case of `CN(C)CCNC(=O)c1csc2ccc(-c3ccc4ccnc(N)c4c3)cc12` [Compound 355, 5-(1-aminoisoquinolin-7-yl)-N-(2-(dimethylamino)ethyl)benzo[b]thiophene-3-carboxamide], the IC50 is 0.5 to 5 µM.
For `CN(C)CCNC(=O)c1cc2cc(-c3ccc4ccnc(N)c4c3)ccc2cn1` [Compound 356, 1′-amino-N-(2-(dimethylamino)ethyl)-[6,7′-biisoquinoline]-3-carboxamide], the IC50 is under 0.5 µM.
For the molecule `CN(C)CCCNC(=O)c1ccc2c(-c3ccc4ccnc(N)c4c3)csc2c1` [Compound 357, 3-(1-aminoisoquinolin-7-yl)-N-(3-(dimethylamino)propyl)benzo[b]thiophene-6-carboxamide], the IC50 lay in the range of 0.5 to 5 µM.
As for `CN(C)CCCNC(=O)c1ccc2c(-c3ccc4ccnc(N)c4c3)c[nH]c2c1` [Compound 359, 3-(1-aminoisoquinolin-7-yl)-N-(3-(dimethylamino)propyl)-1H-indole-6-carboxamide], the figure is 0.5 to 5 µM.
Consider `CN(C)CCNC(=O)c1c2cc(-c3ccc4ccnc(N)c4c3)ccc2nn1C` [Compound 360, 5-(1-aminoisoquinolin-7-yl)-N-(2-(dimethylamino)ethyl)-2-methyl-2H-indazole-3-carboxamide], for which the IC50 is over 5 µM.
